Results taken from ChEMBL document CHEMBL3045474, “Natural products-based insecticidal agents 6. Design, semisynthesis, and insecticidal activity of novel monomethyl phthalate derivatives of podophyllotoxin against Mythimna separata Walker in vivo” (2010).
The source made the active and inactive calls. The rule behind the calls is not given here.

What was measured:
Mythimna separata [1] = assay: In vivo insecticidal activity against pre-third-instar larval stage of Mythimna separata (Oriental armyworm) in corn leaves assessed as inhibition of adult emergence at 1 mg/ml treated for 3 secs before larval infestation on corn leaves by leaf-dipping method; type: functional, organism-based
Mythimna separata [2] = assay: In vivo insecticidal activity against pre-third-instar larval stage of Mythimna separata (Oriental armyworm) in corn leaves assessed as corrected mortality rate at 1 mg/ml treated for 3 secs before larval infestation on corn leaves measured after 10 days by leaf-dipping method; type: functional; details: 240 h
Mythimna separata [3] = assay: In vivo insecticidal activity against pre-third-instar larval stage of Mythimna separata (Oriental armyworm) in corn leaves assessed as corrected mortality rate at 1 mg/ml treated for 3 secs before larval infestation on corn leaves measured after 20 days by leaf-dipping method; type: functional; details: 480 h
Mythimna separata [4] = assay: In vivo insecticidal activity against pre-third-instar larval stage of Mythimna separata (Oriental armyworm) in corn leaves assessed as corrected mortality rate at 1 mg/ml treated for 3 secs before larval infestation on corn leaves measured after 33 days by leaf-dipping method; type: functional; details: 792 h
Mythimna separata [5] = assay: In vivo insecticidal activity against pre-third-instar larval stage of Mythimna separata (Oriental armyworm) in corn leaves assessed as induction of loss of body liquid at 1 mg/ml treated for 3 secs before larval infestation on corn leaves measured after 48 hr by leaf-dipping method; type: functional, organism-based
Mythimna separata [6] = assay: In vivo insecticidal activity against pre-third-instar larval stage of Mythimna separata (Oriental armyworm) in corn leaves assessed as reduction in larval movement at 1 mg/ml treated for 3 secs before larval infestation on corn leaves measured after 24 hr by leaf-dipping method; type: functional, organism-based
Mythimna separata [7] = assay: In vivo insecticidal activity against pre-third-instar larval stage of Mythimna separata (Oriental armyworm) in corn leaves assessed as induction of molting to abnormal pupae at 1 mg/ml treated for 3 secs before larval infestation on corn leaves by leaf-dipping method; type: functional, organism-based
Mythimna separata [8] = assay: In vivo insecticidal activity against pre-third-instar larval stage of Mythimna separata (Oriental armyworm) in corn leaves assessed as induction of larval immobility at 1 mg/ml treated for 3 secs before larval infestation on corn leaves measured after 48 hr by leaf-dipping method; type: functional, organism-based
Mythimna separata [9] = assay: In vivo insecticidal activity against pre-third-instar larval stage of Mythimna separata (Oriental armyworm) in corn leaves assessed as inhibition of larval pupation at 1 mg/ml treated for 3 secs before larval infestation on corn leaves by leaf-dipping method; type: functional, organism-based

| SMILES | Activity (Mythimna separata [1]) | mortality at 1000 µg/mL (Mythimna separata [2]) | mortality at 1000 µg/mL (Mythimna separata [3]) | mortality at 1000 µg/mL (Mythimna separata [4]) | Activity (Mythimna separata [5]) | Activity (Mythimna separata [6]) | Activity (Mythimna separata [7]) | Activity (Mythimna separata [8]) | Activity (Mythimna separata [9]) |
| --- | --- | --- | --- | --- | --- | --- | --- | --- | --- |
| COC(=O)c1ccccc1C(=O)O[C@@H]1c2cc3c(cc2[C@@H](c2cc(OC)c(OC)c(OC)c2)[C@H]2C(=O)OC[C@@H]21)OCO3 | Active | 10% | 20.6% | 38.5% | Active | Active | Active | Active | Active |
| COC(=O)c1cccc([N+](=O)[O-])c1C(=O)O[C@H]1c2cc3c(cc2[C@@H](c2cc(OC)c(OC)c(OC)c2)[C@@]2(Cl)C(=O)OC[C@H]12)OCO3 | Active | 30% | 41.3% | 46.4% | Active | Active | Active | Active | Active |
| COC(=O)c1ccccc1C(=O)N[C@@H]1c2cc3c(cc2[C@@H](c2cc(OC)c(OC)c(OC)c2)[C@H]2C(=O)OC[C@@H]21)OCO3 | Active | 6.6% | 10.3% | 42.8% | Active | Active | Active | Active | Active |
| COc1cc([C@@H]2c3cc4c(cc3[C@H](O)[C@H]3COC(=O)[C@H]23)OCO4)cc(OC)c1OC [PODOFILOX] | – | 16.6% | 20.6% | 35.7% | – | – | – | – | – |
| COC(=O)c1ccccc1C(=O)O[C@H]1c2cc3c(cc2[C@@H](c2cc(OC)c(OC)c(OC)c2)[C@H]2C(=O)OC[C@@H]21)OCO3 | Active | 16.6% | 24.1% | 35.7% | Active | Active | Active | Active | Active |
| COC(=O)c1cccc([N+](=O)[O-])c1C(=O)N[C@@H]1c2cc3c(cc2[C@@H](c2cc(OC)c(OC)c(OC)c2)[C@H]2C(=O)OC[C@@H]21)OCO3 | Active | 10% | 20.6% | 35.7% | Active | Active | Active | Active | Active |
| COC(=O)c1ccccc1C(=O)O[C@H]1c2cc3c(cc2[C@@H](c2cc(OC)c(OC)c(OC)c2)[C@@H]2C(=O)OC[C@@H]21)OCO3 | Active | 10% | 10.3% | 17.8% | Active | Active | Active | Active | Active |
| COC(=O)c1ccccc1C(=O)O[C@H]1c2cc3c(cc2[C@@H](c2cc(OC)c(OC)c(OC)c2)[C@@]2(Cl)C(=O)OC[C@H]12)OCO3 | Active | 16.6% | 31% | 53.5% | Active | Active | Active | Active | Active |
| COC(=O)c1ccccc1C(=O)Oc1c(OC)cc([C@@H]2c3cc4c(cc3[C@@H](OC(=O)c3ccccc3C(=O)OC)[C@H]3COC(=O)[C@H]23)OCO4)cc1OC | Active | 16.6% | 17.2% | 21.4% | Active | Active | Active | Active | Active |
| COC(=O)c1cccc([N+](=O)[O-])c1C(=O)O[C@@H]1c2cc3c(cc2[C@@H](c2cc(OC)c(OC)c(OC)c2)[C@H]2C(=O)OC[C@@H]21)OCO3 | Active | 10% | 17.2% | 42.8% | Active | Active | Active | Active | Active |
| COC(=O)c1cccc([N+](=O)[O-])c1C(=O)O[C@H]1c2cc3c(cc2[C@@H](c2cc(OC)c(OC)c(OC)c2)[C@@H]2C(=O)OC[C@@H]21)OCO3 | Active | 13.3% | 13.7% | 14.2% | Active | Active | Active | Active | Active |
| COC(=O)c1cccc([N+](=O)[O-])c1C(=O)O[C@H]1c2cc3c(cc2[C@@H](c2cc(OC)c(OC)c(OC)c2)[C@H]2C(=O)OC[C@@H]21)OCO3 | Active | 6.6% | 6.9% | 21.4% | Active | Active | Active | Active | Active |
| CC(=O)O[C@@H]1C[C@H](O)[C@@]23CO[C@@H](O)[C@]1(C)[C@@H]2C[C@@H](O)[C@]1(C)[C@@H]3C(=O)[C@H](OC(C)=O)[C@@]2(C)[C@H](c3ccoc3)C[C@H]3O[C@]321 [TOOSENDANIN] | – | 30% | 31% | 50% | – | – | – | – | – |
| COC(=O)c1ccccc1C(=O)Oc1c(OC)cc([C@@H]2c3cc4c(cc3[C@@H](OC(=O)c3c(C(=O)OC)cccc3[N+](=O)[O-])[C@H]3COC(=O)[C@H]23)OCO4)cc1OC | Active | 16.6% | 20.6% | 28.5% | Active | Active | Active | Active | Active |
